# Experimental data taken from patent US9447447B2, “Method and apparatus for testing cardiotoxicity and evaluating cardiomyocytes” (National University Corporation Tokyo Medical and Dental …, priority 2010, dated 2016).
# Columns and labels:
# [1] = both in vivo and in vitro; cited from earlier work
# [2] = test system: human ES cell-derived myocardial clusters
# From the text: They were received in raw and recovered using a glass capillary (Vitrolife), cultured in a medium plus 20% inactivated FBS, 1% non-essential amino acids, 1% penicillin-streptomycin, and 0.2% β-mercaptoethanol in DMEM (all purchased from Invitrogen).
# Collected clusters were then placed in a multi-electrode tip (Alfa Med Scientific). The day on which they were placed was set to Day 0. Clusters for which a 1st peak of an extracellular potential (FP) of 200 mV or more was acquired on Day 3 was used for data acquisition. A multi-electrode membrane potential measurement system (Nikkyo Technos Corp.) was used to acquire data.
# Pre-agent application data (called ‘Before’) was acquired for 10 minutes before agent application. The agent was dissolved in deionized distilled water (DDW) or DMSO, and diluted in PBS before its application. […] Extracellular potential duration (FPD) and STV (short term variability) of the FPD was calculated from the acquired data.
# A steep downward peak of the FP corresponds to the inflow of Na^+. A gradual upward peak corresponds to the outflow of K^+. The FPD was defined as the time between the Na^+ and K^+ peaks. In addition, the STV of the FPD was evaluated as the variation between beats of FPD. STV was calculated by the following equation.
# [formula] The increase in the variation between the FPDs can be evaluated as an increase in the value of STV. […]
structure (smiles),measurement,setting,value
CC(C)NCC(O)c1ccc(NS(C)(=O)=O)cc1 (racemic) [DL-sotalol],known effect on APD and STV,[1],increase the APD and STV
same,"position in two-dimensional plot (X: FPD score, FPD extended by 10% or more; Y: STV score, STV increased by 100% or more)",[2],upper right corner
COc1ccc([C@@H]2Sc3ccccc3N(CCN(C)C)C(=O)[C@@H]2OC(C)=O)cc1 [Diltiazem],"position in two-dimensional plot (X: FPD score, FPD extended by 10% or more; Y: STV score, STV increased by 100% or more)",[2],upper left corner
